From patent publication US20140242606A1, “PROBE FOR iFRET AND USE THEREOF” (KOREA RESEARCH INSTITUTE OF BIOSCIENCE AND BIOTECHNOLOGY, priority 2011, published 2014) come the findings set out here.

The Kd is the equilibrium constant for the complex coming apart. A higher Kd goes with weaker binding.

Data set [1] addresses T1, streptavidin (Streptomyces avidinii, UniProt P22629). The experiment in a line: iFRET detection of streptavidin with biotin-conjugated probes. The format is binding. The settings on record: UV irradiation at 280 nm. An excerpt: The results of detecting streptavidin using Compounds of Chemical Formulae XXV to XXVIII as probes for iFRET are shown in FIGS. 23 to 26.
(§1) As in FIG. 23 showing the result of using the compound of Chemical Formula XXV as a probe for iFRET, the probe itself emitted low fluorescence (blue line) at 430 nm by UV irradiation at 280 nm; the protein (streptavidin) emitted fluorescence (green line) at 340 nm by UV irradiation at 280 nm.
As in FIG. 24 showing the result of using the compound of Chemical Formula XXVI as a fluorescent probe, the probe itself emitted low fluorescence (blue line) at 460 nm by UV irradiation at 280 nm; the protein (streptavidin) emitted fluorescence (green line) at 340 nm by UV irradiation at 280. […] Further, it was confirmed that the fluorescence increasing rate at the above emission wavelength was 600% or more, indicating production of effective iFRET signals.
Because the compound of Chemical Formula XXVII emitted fluorescence at the longer wavelength than the known iFRET probe, signal-to-noise ratio is […] during real-time cell imaging, thereby providing more clear images.
(§2) In order to examine target specificity of the probe having Chemical Formula XXVIII, the probe was exposed to BSA to examine whether iFRET signals were produced by binding of the probe to BSA. […] Therefore, it was confirmed that the biotin-conjugated iFRET fluorescent probe of the present invention selectively binds to streptavidin to produce iFRET signals.

Another data set deals with BSA (Bos taurus, UniProt P02769). Kind of data set: Target specificity of probe XXVIII against BSA. The format is binding. The settings on record: probe exposed to BSA.
Excerpt: as §2

The target in data set [2] is T1, streptavidin. The experiment in a line: FRET efficiency and Forster distance of biotin-conjugated probes. The following applies: between iFRET probe and streptavidin. Format: binding. The procedure: (§3) The quantum yield of each compound was measured in 0.1 M pH 10.0 phosphate buffer. 4-methyl-umbelliferone (ΦF 0.63) was used as a standard material, tryptophan (ΦF=0.12) was used as an FRET donor to calculate the quantum yield. FRET efficiency was calculated based on the results measured in PBS buffer at pH 7.4, and fluorescence was measured using an LS55 fluorescence spectrometer manufactured by Perkin Elmer.

Data set [3] can be described thus: Quantum yield measurement. The following applies: 0.1 M pH 10.0 phosphate buffer, standard 4-methyl-umbelliferone. Format: physicochemical. As for the experimental part: as §3
Data set [4] is described as follows: Fluorescence of the iFRET probe alone. The settings on record: for fluorescence emission wavelength of probe alone: excitation / UV irradiation at 280 nm. Format: physicochemical.
Excerpt: After excitation at 260, 280, 340, and 360 nm, the emitted fluorescence spectra were examined. […]
as §1
As in FIG. 24 showing the result of using the compound of Chemical Formula XXVI as a fluorescent probe, the probe itself emitted low fluorescence (blue line) at 460 nm by UV irradiation at 280 nm; the protein (streptavidin) emitted fluorescence (green line) at 340 nm by UV irradiation at 280. […] Further, it was confirmed that the fluorescence increasing rate at the above emission wavelength was 600% or more, indicating production of effective iFRET signals. […]

Data set [5] deals with BSA (bovine serum albumin) (Bos taurus, UniProt P02769). The experiment in a line: iFRET control of probe XXIV with BSA. The settings on record: probe (2 μM) with BSA (200 nM), PBS pH 7.4. The format is binding. As for the experimental part: (§4) The right graph of FIG. 18 is the result of reexamining iFRET signals using Compound XXIV, purified HSP90 protein, and a control group BSA (bovine serum albumin). 2 μM Compound XXIV was used, and HSP90 protein and BSA protein were used at the final concentration of 200 nM. At this time, the used buffer was phosphate buffered saline (PBS; pH 7.4). As shown in the figure, iFRET signals result from compound XXIV and HSP90 protein which are selectively binding.
(§5) As a control group, BSA (bovine serum albumin) was used.

A further data set addresses HSP90 protein. Kind of data set: Dissociation constant of iFRET probe and HSP90 (double reciprocal plot of fluorescence). The format is binding. The following applies: probe concentration fixed, HSP90 at various concentrations. As for the experimental part:
FIG. 21 is the result of binding degree of the synthesized Chemical Formula XXIV and HSP90 protein. The core structure used in the synthesis of Chemical Formula XXIV is PU-H64 (J. Med. Chem. 2006, 49, 4953-4960), and this structure binds to HSP90. The iFRET probe used in this experiment is a structure in which a fluorescent nucleus is introduced into PU-H64. In order to examine the actual binding degree of this probe and HSP90 protein, analysis of enzyme kinetics was performed to confirm that its dissociation constant is approximately 160 nM. The concentration of Chemical Formula XXIV as the iFRET probe was fixed and HSP90 was reacted at various concentrations to measure emitted fluorescence intensity. Based on this measured values, the dissociation constant was calculated. The reciprocal of the HSP90 concentration and the reciprocal of the fluorescence value were plotted to calculate the dissociation constant.

Data set [6] deals with HSP90 (heat shock protein 90) protein. Kind of data set: iFRET detection of HSP90 with probe XXIV. The format is binding. As for the experimental part: Compound XXIV was dissolved in DMSO, and then diluted with distilled water to a final concentration of 2 μM. When Compound XXIV or the protein was present alone, no fluorescence signals were newly observed around 450 nm.
as §4
FIG. 19 is a graph showing iFRET signals detected by using HSP90 protein and Chemical Formula XXIV Selectively binding thereto.
as §5

In a further data set the target is T2, active caspase (Homo sapiens, UniProt P42574).
T2 sequence (P42574 29-175 limits assumed): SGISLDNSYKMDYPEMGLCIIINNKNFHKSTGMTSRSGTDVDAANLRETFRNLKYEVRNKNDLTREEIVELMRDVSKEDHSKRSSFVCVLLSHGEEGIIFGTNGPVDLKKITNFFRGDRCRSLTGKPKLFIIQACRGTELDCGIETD
T2 sequence (P42574 176-277 limits assumed): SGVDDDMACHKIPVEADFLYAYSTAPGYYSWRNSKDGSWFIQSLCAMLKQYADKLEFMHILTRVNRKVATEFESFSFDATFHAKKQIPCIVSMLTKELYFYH
The experiment in a line: iFRET detection of caspase-3 with probe XXIII. The format is binding. The settings on record: mixture of probe and active caspase, excitation at 280 nm, versus caspase or probe alone. From the text: <Detection of Caspase-3 Protein and Test of its Activity Using iFRET Probe of Chemical Formula XXIII>
Chemical Formula XXIII and caspase protein were used to detect iFRET signals.

A further data set relates to inactive caspase. The experiment in a line: iFRET control with inactive caspase. Format: binding. The following applies: inactive caspase and probe excited at 280 nm.

T1 sequence (P22629 25-183): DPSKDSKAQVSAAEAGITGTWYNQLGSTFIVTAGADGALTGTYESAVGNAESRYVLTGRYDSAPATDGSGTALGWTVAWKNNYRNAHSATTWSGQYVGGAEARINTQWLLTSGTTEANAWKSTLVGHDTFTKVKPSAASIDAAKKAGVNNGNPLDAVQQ
Sequence of BSA (bovine serum albumin) (P02769 25-607): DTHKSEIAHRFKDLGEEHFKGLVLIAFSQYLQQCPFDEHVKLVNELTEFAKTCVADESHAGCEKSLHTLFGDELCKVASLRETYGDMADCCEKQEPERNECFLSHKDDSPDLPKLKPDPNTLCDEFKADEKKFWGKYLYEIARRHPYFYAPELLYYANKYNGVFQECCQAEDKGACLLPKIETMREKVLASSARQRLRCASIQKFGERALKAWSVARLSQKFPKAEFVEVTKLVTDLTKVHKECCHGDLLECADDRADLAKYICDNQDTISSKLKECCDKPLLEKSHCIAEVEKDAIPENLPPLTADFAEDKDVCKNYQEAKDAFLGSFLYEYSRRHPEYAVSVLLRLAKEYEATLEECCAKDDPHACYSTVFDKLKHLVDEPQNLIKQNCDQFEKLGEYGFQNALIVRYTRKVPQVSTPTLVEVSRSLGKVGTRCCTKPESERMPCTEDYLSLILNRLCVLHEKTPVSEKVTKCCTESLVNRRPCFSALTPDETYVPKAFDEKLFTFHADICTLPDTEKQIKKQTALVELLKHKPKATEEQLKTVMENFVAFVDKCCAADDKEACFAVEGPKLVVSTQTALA
Sequence of BSA (P02769 25-607): as above

Turning to `CN(C)c1ccc2cc(/C=C/C(=O)NCCNC(=O)CCCC[C@@H]3SC[C@@H]4NC(=O)N[C@@H]43)c(=O)oc2c1` [Chemical Formula XXVIII, N-((E)-7-dimethylaminocoumarin-3-acryl)-N′-(biotinyl)ethylenediamide], the “fluorescence / iFRET signal of mixture of probe and streptavidin” value on streptavidin [1] is “iFRET signals produced”. The iFRET signals entry at BSA is “no signals were observed”. Moreover, the “R0 (Fōrster distance)” value at streptavidin [2] came out at 2.102 nm. The “Quantum yield (ΦF)” value in data set [3] amounted to 0.55.
Take `Nc1ncnc2c1nc(Sc1cc3c(cc1Br)OCO3)n2CCC(=O)NCCNc1cccc2ccccc12` [Chemical Formula XXIV, 3-(6-amino-8-(6-bromobenzo[1,3]-dioxole-5-ylthio)-9S-purin-9-yl)-N-(2-(naphthalene-1-ylamino)ethyl)propaneamide]: the “fluorescence emission wavelength of probe alone” value in data set [4] is given as “approximately 430 nm”. For the same compound, in data set [4] (probe alone), the “fluorescence intensity on excitation at 340 nm compared to excitation at 280 nm” value is “approximately 2 fold”. Further, in data set [5], the iFRET signals entry is recorded as “no iFRET signals”. The compound further registered a Kd on HSP90 protein of around 160 nM. Besides, in [6] (2 μM probe with purified HSP90, DMSO diluted with distilled water), the “iFRET signal around 450 nm” value is reported as “new fluorescence signals were observed”. Also, the “fluorescence at 430 nm of mixture” value in data set [6] (mixture of probe and HSP90, excitation at 280 nm, versus HSP90 or probe alone) was “increased fluorescence”.
Consider `CC(C)[C@H](NC(=O)[C@H](CCC(=O)O)NC(=O)[C@H](CC(=O)O)NC(=O)CCC(=O)NCCNc1cccc2ccccc12)C(=O)N[C@H](C=O)CC(=O)O` [Chemical Formula XXIII], for which the “fluorescence emission wavelength of probe alone” value in data set [4] is reported as “approximately 445 nm”. Also, the “increase of fluorescence at 445 nm” value on active caspase is recorded as “approximately 300%”. Moreover, the iFRET signals entry with inactive caspase is listed as “no iFRET signals were observed”.
